Results on 5 molecules are retold here after ChEMBL document CHEMBL5143571, “Design, synthesis and anti-breast cancer evaluation of biaryl pyridine analogues as potent RSK inhibitors” (Bioorg Med Chem Lett, 2022).

Calls of active or inactive are those of the source. No cut-off for these calls is given here.

The test system of assay [1] is HCC1806. Briefly: Anti-tumor activity against human HCC1806 cells assessed as inhibition of cell proliferation. It is filed as functional, cell-based.
Assay [2] relates to HCC1806. In words: Inhibition of RSK in human HCC1806 cells assessed as reduction in YB-1 phosphorylation at Ser102 residue at 5 uM incubated for 12 hrs by western blot analysis. It is filed as cell-based. On the technique in general: In western blotting, separated proteins are transferred to a membrane and probed.

Regarding `Cc1ccc(-c2ccncc2-c2ccc(O)c(O)c2)c2ccccc12`, the result in the assay with HCC1806 [1] was Active. Besides, the inhibition result in the assay with HCC1806 [2] is “Active”.

Turning to `Cc1cc(C)cc(-c2ccncc2-c2ccc(O)c(O)c2)c1`, in the assay on HCC1806 [2], the inhibition result was “Active”.

Take `Clc1ccc(-c2ccncc2-c2ccc(OCc3ccccc3)c(NCc3ccccc3)c2)cc1`: the inhibition entry in the assay with HCC1806 [2] is “Active”.

On to `O=Cc1ccc(-c2ccncc2-c2ccc(OCc3ccccc3)c(OCc3ccccc3)c2)cc1`, for which the inhibition result with HCC1806 [2] was “Active”.

Regarding `CN1CCN(c2ccc(-c3ccncc3-c3cc(F)c(O)c(F)c3)cc2)CC1`, the result in the assay on HCC1806 [1] was Active. Further, the inhibition entry with HCC1806 [2] was “Active”.
